Assay results: patent publication US4514420A, “Antifibrotic agent” (Takeda Chemical Industries, Ltd., priority 1982, dated 1985)
Values belong to the molecule of their own block, whether it stands above or below them.

Tests used:
Collagen biosynthesis = Collagen biosynthesis inhibiting activity (collagen content of the uterus); assay type: in vivo, rats of SD strain; details: female SD rats; for Collagen content of uterus / Body weight of rats: groups of 3; for Collagen content of uterus: control 1.64 ± 0.3; for Body weight of rats: control 73 ± 6
Method: (2) Collagen biosynthesis inhibiting activity
Basically in accordance with the method of R. A. Salvador et al. [Arch. Biochem. Biophys. 174, 382 (1976)], 0.2 mg/kg of each test compound was intraperitoneally administered to rats of SD strain (.female., 3 weeks old) once daily for 6 consecutive days and the collagen content of the uterus was compared with the control value.
*Rats were used in groups of 3. Initial body weights = 41 ± 2 ~

[1] = biological target: T1, Protocollagen proline hydroxylase (Gallus gallus, UniProt P16924); experiment: Protocollagen proline hydroxylase-inhibiting activity; assay type: biochemical; details: partially purified chick embryo enzyme, 100 μg as protein, substrate (Pro-Pro-Gly)5.4H2O; for inhibition at 20 µM: Concentration 20 μM
T1 construct: partially purified enzyme preparation derived from chick embryos; from tissue; host or cells: chick embryos
T1 sequence (P16924 1-516): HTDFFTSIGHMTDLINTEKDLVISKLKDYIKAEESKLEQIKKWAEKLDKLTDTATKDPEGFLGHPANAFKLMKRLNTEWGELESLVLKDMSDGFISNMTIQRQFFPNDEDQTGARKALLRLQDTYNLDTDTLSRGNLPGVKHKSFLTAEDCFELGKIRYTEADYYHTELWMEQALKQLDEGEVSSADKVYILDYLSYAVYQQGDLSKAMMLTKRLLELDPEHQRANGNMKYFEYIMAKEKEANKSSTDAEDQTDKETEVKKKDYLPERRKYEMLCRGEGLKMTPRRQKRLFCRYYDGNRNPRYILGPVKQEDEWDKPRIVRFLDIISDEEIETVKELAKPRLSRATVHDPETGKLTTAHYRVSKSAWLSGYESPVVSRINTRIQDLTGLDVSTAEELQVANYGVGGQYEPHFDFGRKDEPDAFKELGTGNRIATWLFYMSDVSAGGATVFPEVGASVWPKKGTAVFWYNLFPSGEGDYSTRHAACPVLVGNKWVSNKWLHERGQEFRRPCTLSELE
T1 sequence (P09102 23-515 partner): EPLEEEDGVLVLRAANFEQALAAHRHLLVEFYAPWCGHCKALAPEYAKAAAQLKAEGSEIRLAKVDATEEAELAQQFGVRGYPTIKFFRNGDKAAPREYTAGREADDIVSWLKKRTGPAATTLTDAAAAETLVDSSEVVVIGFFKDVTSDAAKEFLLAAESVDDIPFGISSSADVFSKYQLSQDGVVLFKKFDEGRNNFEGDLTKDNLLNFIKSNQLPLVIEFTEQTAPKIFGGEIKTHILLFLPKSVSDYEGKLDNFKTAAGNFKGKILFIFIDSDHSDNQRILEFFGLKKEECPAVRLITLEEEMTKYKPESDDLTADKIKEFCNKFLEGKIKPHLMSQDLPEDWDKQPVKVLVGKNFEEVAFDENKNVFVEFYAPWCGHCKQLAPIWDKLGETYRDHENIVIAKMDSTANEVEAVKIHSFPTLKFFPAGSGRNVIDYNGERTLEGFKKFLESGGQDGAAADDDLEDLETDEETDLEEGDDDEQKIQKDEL
Method: (1) Protocollagen proline hydroxylase-inhibiting activity
This inhibitory activity was assayed by the procedure of R. E. Rhoads et al. (Methods in Enzymology XVII B, 306 (1971)) using a partially purified enzyme preparation derived from chick embryos in accordance with the methods of K. I. Kivirriko et al. and J. Halme et al. (J. Biol. Chem. 242, 4007 (1967) and Biochem. Biophys. Acta 198, 460 (1967), and, as a substrate, (Pro-Pro-Gly)5.4H2 O (Protein Research Foundation, Osaka). In this assay, the partially purified enzyme preparation was used in the amount of 100 μg as protein. The results are shown in Table 1.

[2] = Toxicity, gastric gavage to rats in a 5-week regimen; assay type: in vivo; details: 2500 mg/kg/day
Excerpt: The compound (I) is very low in toxicity.

[3] = 17β-Estradiol alone, 0.2 mg/kg intraperitoneally once daily for 6 consecutive days
[4] = given with 17β-Estradiol, 0.2 mg/kg of each test compound intraperitoneally once daily for 6 consecutive days

Compound: C[C@]12CC[C@@H]3c4ccc(O)cc4CC[C@H]3[C@@H]1CC[C@@H]2O [17β-Estradiol, reference compound]
Collagen content of uterus (Collagen biosynthesis; [3]): 3.45 ± 0.11 | Body weight of rats (Collagen biosynthesis; [3]): 73 ± 3 g

Compound: COC1=C(OC)C(=O)C(CCCCO)=C(C)C1=O [A:CH2 n:3 R:H]
inhibition at 25 µM ([1]; Concentration 25 μM): 68%

Compound: COC1=C(OC)C(=O)C(CCCCCCCCCCO)=C(C)C1=O [A:CH2 n:9 R:H, 2,3-dimethoxy-5-methyl-6-(10'-hydroxydecyl)-1,4-benzoquinone]
Abnormalities in body weight, food intake, urinalysis and blood tests [2]: no abnormalities in body weight, food intake, urinalysis and blood tests | inhibition at 20 µM [1]: 37% | Collagen content of uterus (Collagen biosynthesis; [4]): 2.94 ± 0.28 | Body weight of rats (Collagen biosynthesis; [4]): 69 ± 6 g | Degree of inhibition (Collagen biosynthesis; given with 17β-Estradiol, 0.2 mg/kg of each test compound intraperitoneally once daily for 6 consecutive days, formula in footnote ** (drawing 3)): 28

Compound: COC(=O)CCCC1=C(C)C(=O)C(OC)=C(OC)C1=O [A:CO n:3 R:CH3]
inhibition at 50 µM ([1]; Concentration 50 μM): 47%

The remaining lines, values ahead:

inhibition at 20 µM [1]: 57%
Compound: COC1=C(OC)C(=O)C(CCCC(=O)O)=C(C)C1=O [A:CO n:3 R:H]

inhibition at 20 µM [1]: 35%
Compound: COC1=C(OC)C(=O)C(CCCCCCCC(=O)O)=C(C)C1=O [A:CO n:7 R:H]

inhibition at 20 µM [1]: 21%
Compound: COC(=O)CCCCCCCCCC1=C(C)C(=O)C(OC)=C(OC)C1=O [A:CO n:9 R:CH3]

inhibition at 20 µM [1]: 31%
Compound: COC1=C(OC)C(=O)C(CCCCCCCCCC(=O)O)=C(C)C1=O [A:CO n:9 R:H]
